Data on one compound can be found in publication PMC4741190, “Crystal structure of the flavoenzyme PA4991 from Pseudomonas aeruginosa” (Acta Crystallographica. Section F, Structural Biology …, 2016).

Molecules are shown by their SMILES.

The assay concerns the target T1, PA4991 (Pseudomonas aeruginosa, UniProt Q9HUH4).
T1 construct: N-terminal His6 tag cut with TEV protease; expressed in E. coli BL21(DE3)
T1 sequence (Q9HUH4 1-391): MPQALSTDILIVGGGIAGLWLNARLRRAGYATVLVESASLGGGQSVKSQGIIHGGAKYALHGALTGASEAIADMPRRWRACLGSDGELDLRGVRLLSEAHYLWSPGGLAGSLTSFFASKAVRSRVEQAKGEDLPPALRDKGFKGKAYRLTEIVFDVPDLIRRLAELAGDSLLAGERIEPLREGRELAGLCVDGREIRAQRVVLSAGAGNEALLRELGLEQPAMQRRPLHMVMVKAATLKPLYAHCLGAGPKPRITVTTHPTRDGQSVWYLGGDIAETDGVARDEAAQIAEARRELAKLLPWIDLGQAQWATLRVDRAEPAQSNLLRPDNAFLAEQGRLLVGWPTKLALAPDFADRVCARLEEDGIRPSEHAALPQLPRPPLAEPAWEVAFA
The experiment in a line: X-ray crystal structure, […] A; UV-visible spectrum. Particulars: noncovalent; co-purified cofactor, extended conformation; crystals pH 8.5, soaked in 1 mM phenylmercuric chloride. Type of assay: binding.

In the case of `Cc1cc2nc3c(=O)[nH]c(=O)nc-3n(C[C@H](O)[C@H](O)[C@H](O)COP(=O)(O)OP(=O)(O)OC[C@H]3O[C@@H](n4cnc5c(N)ncnc54)[C@H](O)[C@@H]3O)c2cc1C` [FAD], the “X-ray crystal structure, 2.40 A; UV-visible spectrum” value is “FAD is bound noncovalently to PA4991 in an extended conformation”.
